Source: US12421249B2, “Inhibitors of APOL1 and methods of using same” (Vertex Pharmaceuticals Incorporated, priority 2020, dated 2025)

Target: T1, APOL1 G1 (Homo sapiens, UniProt O14791, I384M/S342G)
T1 sequence (O14791 28-398 S342G/I384M): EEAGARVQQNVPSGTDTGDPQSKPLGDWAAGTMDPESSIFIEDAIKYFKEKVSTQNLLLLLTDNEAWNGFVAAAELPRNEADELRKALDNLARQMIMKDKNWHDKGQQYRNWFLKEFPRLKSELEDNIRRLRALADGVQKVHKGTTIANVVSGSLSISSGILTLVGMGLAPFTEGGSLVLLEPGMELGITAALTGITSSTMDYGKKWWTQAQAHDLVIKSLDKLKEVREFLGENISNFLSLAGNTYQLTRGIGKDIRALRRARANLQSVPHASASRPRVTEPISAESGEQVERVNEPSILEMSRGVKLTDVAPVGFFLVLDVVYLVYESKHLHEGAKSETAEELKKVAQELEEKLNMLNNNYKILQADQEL
Assay: MultiTox-Fluor Multiplex Cytotoxicity Assay in tet-inducible APOL1 G1 T-REx-HEK293 cells (clone G1 DC3.25)
Type: cell-based
Design: expressed in transfected cells; host or cells: T-REx HEK293, pAAVS1-Puro-APOL1 G1, clone G1 DC3.25
Details: Multi-Tox Assay, APOL1 variant cell line not given; for Emax: read-out: Multi-Tox Assay Max Activity (%); for IC50: IP50 = IC50 for cell proliferation
Method: The MultiTox-Fluor Multiplex Cytotoxicity Assay is a single-reagent-addition, homogeneous, fluorescence assay that measures the number of live and dead cells simultaneously in culture wells. The assay measures cell viability and cytotoxicity by detecting two distinct protease activities. The live-cell protease activity is restricted to intact viable cells and is measured using a fluorogenic, cell-permeant peptide glycyl-phenylalanylamino fluorocoumarin (GF-AFC) substrate. The substrate enters intact cells, where it is cleaved to generate a fluorescent signal proportional to the number of living cells. […] A second, cell-impermeant, fluorogenic peptide substrate (bis-AAF-R110 Substrate) is used to measure dead-cell protease that has been released from cells that have lost membrane integrity. A ratio of dead to live cells is used to normalize data.
Briefly, the tet-inducible transgenic APOL1 T-REx-HEK293 cell lines were incubated with 50 ng/mL tet to induce APOL1 in the presence of 3-(2-(4-fluorophenyl)-1H-indol-3-yl)-N-((3S,4R)-4-hydroxy-2-oxopyrrolidin-3-yl)propenamide at […], 0.0045, 0.0015, 0.0005 μM in duplicate for 24 hours in a humidified 37° C. incubator. The MultiTox reagent was added to each well and placed back in the incubator for an additional 30 minutes. The plate was read on the EnVision plate reader. A ratio of dead to live cells was used to normalize, and data was imported, analyzed and fit using Genedata Screener (Basel, Switzerland) software. Data was normalized using percent of control, no tet (100% viability), and 50 ng/mL tet treated (0% viability), and fit using Smart Fit. The reagents, methods, and complete protocol for the MultiTox assay are described below.
Human embryonic kidney (HEK293) cell lines containing a tet-inducible expression system (T-REx™; Invitrogen, Carlsbad, CA) and Adeno-associated virus site 1 pAAVS1-Puro-APOL1 G0 or pAAVS1-Puro-APOL1 G1 or pAAVS1-Puro-APOL1 G2 Clones G0 DC2.13, G1 DC3.25, and G2 DC4.44 were grown in a T-225 flask at ˜90% confluency in cell growth media (DMEM, 10% Tet-free FBS, 2 mM L-glutamine, 100 Units/mL penicillin-streptomycin, 5 μg/mL blasticidin S HCl, 1 μg/mL puromycin dihydrochloride). Cells were washed with DPBS and then trypsinized to dissociate from the flask. Media was used to quench the trypsin, cells were then pelleted at 200 g and resuspended in fresh cell assay media (DMEM, 2% Tet-free FBS, 2 mM L-glutamine, 100 Units/mL penicillin-streptomycin). Cells were counted and diluted to 1.17×10^6 cells/mL. 20 μL of cells (23,400/well) were dispensed to every well of a 384-well Poly-D-Lysine coated plate using the Multidrop dispenser. The plates were then incubated at room temperature for one hour.
Tetracycline is needed to induce APOL1 expression. 1 mg/mL tet stock in water was diluted to 250 ng/mL (5×) in cell assay media. 60 μL of cell assay media (no tet control) was dispensed in columns 1 and 24, and 60 μL of 5× tet was dispensed in 384-PP-round bottom plate in columns 2 to 23 with the Multidrop dispenser.
Assay ready plates from the Global Compound Archive were ordered using template 384_APOL1Cell_DR10n2_50 μM_v3. Compounds were dispensed at 200 nL in DMSO. The final top concentration was 10 μM with a 10 point 3-fold dilution in duplicate in the MultiTox assay.
20 μL were transferred from the 5× tet plate to the ARP and mixed, then 5 μL of 5× tet and the compounds were transferred to the cell plate and mixed using the Bravo. The cell plate was placed in the humidified 37° C. 5% CO2 incubator for 24 hours.
The MultiTox-Fluor Multiplex Cytotoxicity Assay was performed in accordance with the manufacturer's protocol. After cells were incubated with tet and compound for 24 hours, 25 μL of 1× MultiTox reagent was added to each well using the Multidrop dispenser; the plates were placed on a plate shaker (600 rpm) for 2 minutes, then centrifuged briefly and placed back in the 37° C. incubator for 30 minutes. […]

SMILES	IC90	Emax	IC50
COCC1([C@@H]2C[C@]3(C[C@H](C)N2)OCCc2cc(Cl)sc23)CC1 (racemic) [Compound 376]	50 to 500 nM	99%	50 to 500 nM
C[C@H]1C[C@@]2(C[C@@H](C3(C#N)CC3)N1)OCCc1cc(Cl)sc12 (racemic) [Compound 377]	> 500 nM	98%	50 to 500 nM
C[C@H]1C[C@@]2(C[C@@H](C3(N(C)C)CC3)N1)OCCc1cc(Cl)sc12 (racemic) [Compound 378]	50 to 500 nM	99%	< 50 nM
CCOC(=O)C1CC1[C@@H]1C[C@]2(C[C@H](C)N1)OCCc1cc(Cl)sc12 (stereo in doubt) [Compound 374]	50 to 500 nM	99%	< 50 nM
CCOC(=O)C1CC1[C@@H]1C[C@]2(C[C@H](C)N1)OCCc1cc(Cl)sc12 (stereo in doubt) [Compound 375]	50 to 500 nM	–	< 50 nM
C[C@H]1C[C@@]2(C[C@@H](c3cn(CCO)nn3)N1)OCC(F)(F)c1cc(Cl)sc12 [Compound 361]	–	98%	< 50 nM
COc1ccc(Cn2cc([C@@H]3C[C@]4(C[C@H](C)N3)OCC(F)(F)c3cc(Cl)sc34)nn2)cc1F [Compound 362]	–	98%	–
C[C@H]1C[C@@]2(C[C@@H](c3cn(C[C@@H](O)CO)nn3)N1)OCC(F)(F)c1cc(Cl)sc12 [Compound 363]	–	99%	< 50 nM
C[C@H]1C[C@@]2(C[C@@H](c3cn(CC(C)(C)O)nn3)N1)OCC(F)(F)c1cc(Cl)sc12 [Compound 364]	–	95%	–
C[C@H]1C[C@@]2(C[C@@H](c3cn(Cc4cncs4)nn3)N1)OCC(F)(F)c1cc(Cl)sc12 [Compound 365]	–	99%	< 50 nM
C[C@H]1C[C@@]2(C[C@@H](c3cn(Cc4ccc5nc(O)[nH]c5c4)nn3)N1)OCC(F)(F)c1cc(Cl)sc12 [Compound 366]	–	95%	–
C[C@H]1C[C@@]2(C[C@@H](c3cn(CCC(C)(C)O)nn3)N1)OCC(F)(F)c1cc(Cl)sc12 [Compound 367]	–	99%	< 50 nM
C[C@H]1C[C@@]2(C[C@@H](c3cn(CC4CCC(=O)NC4)nn3)N1)OCC(F)(F)c1cc(Cl)sc12 (some centres unmarked) [Compound 368]	–	96%	–
C[C@H]1C[C@@]2(C[C@@H](c3cn(CC#N)nn3)N1)OCC(F)(F)c1cc(Cl)sc12 [Compound 369]	–	98%	–
CC(CO)Cn1cc([C@@H]2C[C@]3(C[C@H](C)N2)OCC(F)(F)c2cc(Cl)sc23)nn1 (some centres unmarked) [Compound 370]	–	99%	–
C[C@H](CO)Cn1cc([C@@H]2C[C@]3(C[C@H](C)N2)OCC(F)(F)c2cc(Cl)sc23)nn1 [Compound 371]	50 to 500 nM	99%	< 50 nM
COC(=O)C1([C@@H]2C[C@]3(C[C@H](C)N2)OCCc2cc(Cl)sc23)CC1 [Compound 372, methyl 1-[(2′S, 6′S, 7S)-2-chloro-6′-methyl-spiro[4,5-dihydrothieno[2,3-c]pyran-7,4′-piperidine]-2′-yl]cyclopropanecarboxylate]	–	92%	> 500 nM
C[C@H]1C[C@@]2(C[C@@H](C3(N)CC3)N1)OCCc1cc(Cl)sc12 [Compound 373, 1-[(2′S,6′S,7S)-2-chloro-6′-methyl-spiro[4,5-dihydrothieno[2,3-c]pyran-7,4′-piperidine]-2′-yl]cyclopropanamine]	–	99%	< 50 nM
CC(=O)NC1([C@@H]2C[C@]3(C[C@H](C)N2)OCCc2cc(Cl)sc23)CC1 [Compound 379, N-[1-[(2′S,6′S, 7S)-2-chloro-6′-methyl-spiro[4,5-dihydrothieno[2,3-c]pyran-7,4′-piperidine]-2′-yl]cyclopropyl]acetamide]	–	94%	> 500 nM
C[C@H]1C[C@@]2(C[C@@H](C3(CO)CC3)N1)OCCc1cc(Cl)sc12 [Compound 380, [1-[(2′S,6′S, 7S)-2-chloro-6′-methyl-spiro[4,5-dihydrothieno[2,3-c]pyran-7,4′-piperidine]-2′-yl]cyclopropyl]methanol]	–	99%	< 50 nM
Cn1cc([C@@H]2C[C@]3(C[C@H](C4CC4)N2)OCCc2cc(Cl)sc23)nn1 [Compound 381, (2′R,6′S, 7S)-2-chloro-2′-cyclopropyl-6′-(1-methyltriazol-4-yl)spiro[4,5-dihydrothieno[2,3-c]pyran-7,4′-piperidine]]	–	–	< 50 nM
Cn1cc([C@@H]2C[C@]3(C[C@H](C4CC4)N2)OC[C@@H](O)c2cc(Cl)sc23)nn1 [Compound 382, (2′R,4S,6′S, 7S)-2-chloro-2′-cyclopropyl-6′-(1-methyltriazol-4-yl)spiro[4,5-dihydrothieno[2,3-c]pyran-7,4′-piperidine]-4-ol]	–	–	< 50 nM
Cn1cc([C@@H]2C[C@]3(C[C@H](C4CC4)N2)OCCc2cc(C(F)(F)F)sc23)nn1 [Compound 383, (2′R,6′S,7S)-2′-cyclopropyl-6′-(1-methyltriazol-4-yl)-2-(trifluoromethyl)spiro[4,5-dihydrothieno[2,3-c]pyran-7,4′-piperidine]]	–	–	< 50 nM
C[C@H]1C[C@@]2(C[C@@H](c3cn(C)nn3)N1)OCC(C)(O)c1cc(C(F)(F)F)sc12 (stereo partly drawn) [Compound 384, (2′S,6′S, 7S)-2′,4-dimethyl-6′-(1-methyltriazol-4-yl)-2-(trifluoromethyl)spiro[5H-thieno[2,3-c]pyran-7,4′-piperidine]-4-ol]	–	–	< 50 nM
C[C@H]1C[C@@]2(C[C@@H](c3cn(C)nn3)N1)OC[C@@H](O)c1cc(C(F)(F)F)sc12 [Compound 386, (2S,4S,4′S,6S)-2-methyl-6-(1-(methyl-^13C-d3)-1H-1,2,3-triazol-4-yl)-2′-(trifluoromethyl)-4′,5′-dihydrospiro[piperidine-4,7′-thieno[2,3-c]pyran]-5-^13C-4′-ol]	< 50 nM	–	< 50 nM
Cn1cc([C@@H]2C[C@]3(C[C@H](c4ccccc4)N2)OC[C@@H](O)c2cc(Cl)sc23)nn1 [Compound 387, (2′S,4S,6′R, 7S)-2-chloro-2′-(1-methyltriazol-4-yl)-6′-phenyl-spiro[4,5-dihydrothieno[2,3-c]pyran-7,4′-piperidine]-4-ol]	–	–	> 500 nM
Cn1cc(C2CC3(CC(C(F)F)N2)OCCc2cc(Cl)sc23)nn1 (centres unmarked) [Compound 388, 2-chloro-2′-(difluoromethyl)-6′-(1-methyltriazol-4-yl)spiro[4,5-dihydrothieno[2,3-c]pyran-7,4′-piperidine]]	–	–	> 500 nM
